Experimental data: patent US20060229224A1, “Bleaching composition” (priority 2003, published 2006)
“And” between values parts separate entries of the source, which are not always exact repeats. Identical values can stand only once. “Also recorded” adds a separate entry of the source. Like-named read-outs stand apart in the source and are kept apart here.

Experiments:
[1] = test system: 3T3
Protocol: (§1) Photo-bleaches were tested for photo-toxicity using the Photo-toxicity-In Vitro 3T3 NRU Photo-toxicity Test” of the Commission Directive 2000/33/EC of 25 Apr.

[2] = Photo-bleaching of palm oil stained cotton cloths in wash followed by weatherometer irradiation; conditions: staining relative to clean white cloth
Protocol: Palm oil stained cloths (Brazilian) were prepared as follows. Palm oil 0.06 g was added deposited onto individual woven white cotton cloth samples weighing 1.2 g each. The cloth samples were allowed to age for 1 hour before being washed. Each wash consisted of four stained cloths, 200 ml of 40° C. water and 1 g of Persil Colour-washing powder (purchased in UK, zeolite based). The wash liquor was agitated for 20 minutes then the clothes rinsed in cold water, wrung and irradiated in a weatherometer for 18 minutes. The weatherometer is designed to simulate outside line drying and was set to give 42 W/m2 in the UVA&B.
The washes were duplicated but with the addition of 9 ppm of the photo-bleach to the wash solution, corresponding to 0.18% by weight on the powder formulation.
After the wash/irradiation procedure the staining of the clothes relative to clean white cloth was measured on a reflectometer and expressed as the deltaE value.

[3] = test system: 3T3; experiment: In Vitro 3T3 NRU Photo-toxicity Test; conditions: for Result: photo-toxicity classification
Protocol: as §1

[4] = Example 1, 9 ppm photo-bleach in wash solution, 40° C. wash, irradiated 18 minutes in weatherometer
[5] = Table 3, PIF quoted to 2 significant figures
[6] = Example 2, same procedure as Example 1, 9 ppm photo-bleach

Compound | PIF [3, 5] | Result ([3]; Table 3) | also measured
2-sulphate anthraquinone |  |  | PIF [1]: >170
O=C(c1ccccc1)C1(O)CCCCC1 [1-hydroxycyclohexylphenyl ketone] |  |  | PIF [1]: >7.5
Cc1cc(C)c(C(=O)c2ccccc2)c(C)c1 [2,4,6-trimethylbenzophenone] | 28 | Photo-toxic (PIF≧5 or MPE≧0.1) | Average deltaE [2, 4]: 16.2
CCc1ccc2c(c1)C(=O)c1ccccc1C2=O [2-ethylanthraquinone] | >1000 | Photo-toxic (PIF≧5 or MPE≧0.1) | Average deltaE [2, 4]: 2.5
CC(C)(O)C(=O)c1ccc(OCCO)cc1 [2-hydroxy-4′-hydroxyethoxy-2-methylpropiophenone] | >120 | Photo-toxic (PIF≧5 or MPE≧0.1) | 
CC1(C)[C@@H]2CC[C@@]1(C)C(=O)C2=O [Camphoroquinone] |  |  | Average deltaE [2, 6]: 23.5
CN(C)CCCN1c2ccccc2Sc2ccc(Cl)cc21 [Chlorpromazine] | 43 | Photo-toxic (PIF≧5 or MPE≧0.1) | 
Cc1cc(C)c(C(=O)P(=O)(C(=O)c2c(C)cc(C)cc2C)c2ccccc2)c(C)c1 [Phenylbis(2,4,6-trimethylbenzoyl)-phosphine oxide] | >12 | Photo-toxic (PIF≧5 or MPE≧0.1) | 
CC1=CC(=O)c2ccccc2C1=O [Vitamin K3, 2-methyl-1,4-napthoquinone] | 2.3 | Non-photo-toxic (PIF<5 or MPE<0.1) | Average deltaE [2, 6]: 2.9; photo-toxicity classification [3]: not photo-toxic; also recorded: non-photo-toxic; PIF ([3]; experiments repeated twice more): 1.9 and 1.6
